Legend:
L6 myotubes = test: cellular glucose uptake ([3H]-2DG); assay type: cell-based; details: Ins 100 nM, Met 1 mM, UA 10 uM, RES 100 uM
Experimental: L6 myotubes were incubated with UA (10 μM) at different time points.

Akt = Akt phosphorylation in L6 myotubes; assay type: cell-based; details: UA 10 μM
Experimental: (§1) L6 myotubes were incubated with UA (10 μM) at different time points. Ursolic acid induced Akt phosphorylation by 1.8, 1.7, and 1.8 fold increase at 30, 45, and 60 min. […] Treatment of L6 myotubes with UA (10 μM) or RES (100 μM) for 30 min increased AMPK phosphorylation by 1.7 and 5.3 fold, respectively.

[1] = system: Akt substrate 160 (AS160); test: AS160 phosphorylation in L6 myotubes; assay type: cell-based; details: UA 10 μM
Experimental: as §1

SENCAR mice [2] = test: TPA-induced epidermal proliferation (BrdU IHC) in mouse skin; assay type: in vivo
Experimental: (§2) Animals and treatment: Female SENCAR mice, 6-7 weeks old, were purchased from NCI Frederick (Frederick, Md.). The dorsal skin of SENCAR mice were shaved and treated topically twice per week for 2 weeks with 200 μL acetone vehicle or 1-3 μmol UA, 1-3 μmol RES, or an equimolar combination of RES and UA. Each treatment was followed 30 minutes later with topical application of 200 μL acetone vehicle or 1-2 μg of the tumor promoter TPA. In vivo sample collection: Animals were sacrificed 6 hr after the final TPA treatment for Western blotting and 48 hr after the final TPA treatment for histology. For immunohistochemical (IHC) analysis of epidermal proliferation five mice per group were i.p. injected with 100 mg/kg Bromodeoxyuridine (BrdU) in PBS 30 min prior to sacrifice. 1 cm^2 of mouse skin from treated areas was fixed in formalin and paraffin embedded to be analyzed via IHC. Immunohistochemistry (IHC): Slides were immunostained with anti-BrdU antibody. The percentage of BrdU-positive cells in the basal cell layer was determined from at least 10 randomly selected sites per slide (5 mice/group). In addition, the epidermal thickness of each skin sample was also measured at 10 random sites for 5 mice/group, using Image Pro-Discovery from Media Cybernetics (Bethesda, Md.).

NFKB subunit p65 = test: TNFα-mediated p65 phosphorylation in HaCaT keratinocytes, Western blot; assay type: cell-based, human; details: preliminary experiments, RES 100 and 200 μM, UA 10 and 20 μM, single agents
Experimental: Western blotting: HaCaT cells were treated with sub-optimal doses of RES, UA, or RES+UA and stimulated with 10 ng/ml human tumor necrosis factor alpha (TNFα) for 30 min. Cells were scraped into lysis buffer containing 1% Triton X-100, 0.5% IGEPAL, 0.05 M TrisHCl and 0.1 M NaCl as well as protease/phosphatase inhibitors and 5 mM EDT A. For in vivo studies, whole skin was placed on glass over ice and epidermis was removed by scraping and placed in RIPA buffer with protease/phosphatase inhibitors. Lysates were homogenized and proteins were extracted by centrifugation. Twenty micrograms of protein was separated on Bis-Tris gels and transferred onto PVDF membranes. Membranes were blocked in 5% dry milk or BSA and incubated with primary antibodies overnight at 4° C. Membranes were incubated with corresponding HRP-conjugated secondary antibodies for one hour and developed.
As mentioned before, NFKB activity is important during the tumor promotion phase.

AMPK = AMPK phosphorylation in L6 myotubes; assay type: cell-based; details: 30 min, UA 10 μM, RES 100 μM, alone or combined
Experimental: as §1

SENCAR mice [3] = test: TPA-mediated epidermal thickening (hyperplasia) in mouse skin; assay type: in vivo; details: for 2 μg TPA-mediated epidermal thickening: topical 1, 2, or 3 μmol total dose, single agent
Experimental: as §2

NFKB = test: Luciferase assay for NFKB activity in HaCaT cells; assay type: cell-based, human
Experimental: Luciferase assay for NFKB activity: HaCaT cells were transfected with the NFKB Cignal Reporter Assay Kit from Qiagen, using Attractene transfection reagent, per manufacturer's instructions. Cells were plated at 1.5×10^4 cells/well in 96 well plates during the transfection. After 16 hr transfection, cells were resupplied with OptiMEM containing 0.5% FBS, 1% non-essential amino acids, 50 U/ml penicillin, and […] for 24 hr. Cells were pretreated with various doses of RES or vehicle for 1 hr, followed by UA or vehicle for 1 hr. TNFα at 10 ng/ml was added and cells were incubated for 4 hr. Luminescence of both the TNFα-induced firefly luciferase and the transfection control Renilla luciferase were measured using the Dual-Luciferase Reporter Assay System from Promega and quantified using a Biotek Synergy HT spectrophotometer.

[4] = system: Ca3/7 mouse squamous carcinoma cells; test: MTT assay for cell viability, Ca3/7; assay type: cell-based; details: Ca3/7 cells, 200 μM RES
Experimental: MTT assay for cell viability: Cells were plated at 1.5×10^4 cells/well on 96-well plates. Cells were pretreated with RES or 0.1% vehicle for 1 hr followed by various doses of UA or 0.1% DMSO vehicle for 24 hr. In the experiment with A549 cells, 5.0×10^3 cells/well were plated, and cells were treated with UA or 0.1% DMSO for 48 hr after 1 hr pretreatment with RES or vehicle. MTT reagent (0.5 mg/ml) was added, and cells were incubated for an additional 2.5 hr. Media was removed and formazan crystals were dissolved with 100 μl DMSO. Plates were measured at 570 nm with background subtraction at 650 nm, using a Biotek Synergy HT spectrophotometer. Statistical Analyses: Differences between individual groups were determined by ANOVA. IC50 values were calculated with GraphPad Prism. Resistance Reversal (RR) was calculated by dividing the IC50 value of the UA+vehicle group by the IC50 value of the UA+RES group.

[5] = 1-3 μmol doses, assayed 48 hr after the final TPA treatment

| Structure (SMILES) | Mean [3H]-2DG per Min per Protein [ ] (L6 myotubes) | Mean [3H]-DPM corrected for CYTO B (L6 myotubes) | fold change from DMSO (L6 myotubes) | 2 μg TPA-induced epidermal proliferation (SENCAR mice [2]; [5]) | TNFα-induced NFKB activity (phosphorylation of p65) (NFKB subunit p65) | AMPK phosphorylation increase (AMPK) | 2 μg TPA-mediated epidermal thickening (SENCAR mice [3]) | further results |
| --- | --- | --- | --- | --- | --- | --- | --- | --- |
| CN(C)C(=N)N=C(N)N [Met, Metformin, reference compound] | 232.19 pmol/mg/min | 19718.32 DPM/mg | 1.94 fold |  |  |  |  |  |
| C[C@H]1[C@H](C)CC[C@]2(C(=O)O)CC[C@]3(C)C(=CC[C@@H]4[C@@]5(C)CC[C@H](O)C(C)(C)[C@@H]5CC[C@]43C)[C@H]12 [UA, Ursolic acid] | 257.35 pmol/mg/min | 21855.37 DPM/mg | 2.15 fold | limited effect | moderate effect | 1.7 fold | dose-dependently reversed | Akt phosphorylation fold increase (Akt; 30 min): 1.8 fold; Akt phosphorylation fold increase (Akt; 45 min): 1.7 fold; Akt phosphorylation fold increase (Akt; 60 min): 1.8 fold; AS160 phosphorylation increase ([1]; 15 min): 1.3 fold; AS160 phosphorylation increase ([1]; 30 min): 2.5 fold; AS160 phosphorylation increase ([1]; 45 min): 1.6 fold; AS160 phosphorylation increase ([1]; 60 min): 2.3 fold; 2 μg TPA-induced epidermal proliferation (SENCAR mice [2]; 3 μmol of UA alone): significantly decreased; 1 μg TPA-induced epidermal proliferation (SENCAR mice [2]; UA alone, 1-3 μmol): dose-dependently decreased; effect of 1 μg TPA on epidermal thickening (SENCAR mice [3]; UA alone, 1-3 μmol): dose-dependently decreased; TNFα-stimulated NFKB activity (luciferase reporter) (NFKB; UA alone): dose-dependently decreases |
| Oc1ccc(C=Cc2cc(O)cc(O)c2)cc1 [RES, resveratrol] | 244.97 pmol/mg/min | 37819.44 DPM/mg | 2.05 fold | limited effect | moderate effect | 5.3 fold | no effect | UA-mediated growth suppression with RES [4]: increases the sensitivity; effect of 1 μg TPA on epidermal thickening (SENCAR mice [3]; 2 and 3 μmol doses of RES alone): no effect; NFKB activity (luciferase reporter) (NFKB; RES alone 100 and 200 μM): partially inhibited |

From patent US11690851B2, “Methods and compositions comprising ursolic acid and/or resveratrol for treating diabetes, or cancer” (priority 2014, dated 2023)
